According to patent US6306876A, “4-[aryl(8-azabicyclo[3.2.1]octan-3-yl)]aminobenzoic acid derivatives” (priority 2000, dated 2001):

Target: T1, delta-opioid receptor (Rattus norvegicus, UniProt P33533)
T1 construct: from tissue; host or cells: forebrain particulate (membrane) preparation of male Wistar rats (animals from Charles River, Kingston, N.Y.)
Assay: Rat Brain Delta-Opioid Receptor Binding Assay
Design: species or system rat (Wistar)
Details: rat forebrain homogenate, [3H]DPDPE, 25° C., pH 7.4; read-out: Delta K

T1 sequence (P33533 whole entry): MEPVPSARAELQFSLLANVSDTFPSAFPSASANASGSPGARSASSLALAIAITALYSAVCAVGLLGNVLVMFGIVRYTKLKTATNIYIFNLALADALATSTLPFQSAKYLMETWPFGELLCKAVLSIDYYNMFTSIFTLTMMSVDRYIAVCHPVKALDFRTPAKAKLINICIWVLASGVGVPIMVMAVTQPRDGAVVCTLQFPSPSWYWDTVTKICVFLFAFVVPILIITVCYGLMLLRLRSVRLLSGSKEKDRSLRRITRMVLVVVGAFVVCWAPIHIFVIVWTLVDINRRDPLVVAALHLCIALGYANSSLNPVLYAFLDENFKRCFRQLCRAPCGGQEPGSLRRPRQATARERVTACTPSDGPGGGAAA

CN1C2CCC1CC(N(c1ccccc1)c1cccc(C(=O)OC(C)(C)C)c1)C2 (stereo not drawn) [Example 38, 1,1-Dimethylethyl 3-[phenyl(endo-8-methyl-8-azabicyclo[3.2.1]octan-3-yl)amino]benzoate]
Ki: 459 nM
